The NIST ThermoML archive (doi:10.1016/j.jct.2013.03.003)
Numbers after ± are expanded uncertainties.

Assay: osmotic coefficient (dimensionless); mn = molality of the nth substance listed, in mol/kg
Conditions: 298.15 K, Liquid, isopiestic method

[Br-].[K+] [potassium bromide] + O
Conditions | osmotic coefficient
m1 = 2.545 | 0.9434 ± 0.0029
m1 = 2.703 | 0.9473 ± 0.0027
m1 = 2.947 | 0.9544 ± 0.0023
m1 = 3.171 | 0.9579 ± 0.0021
m1 = 3.46 | 0.965 ± 0.0019
m1 = 3.778 | 0.9757 ± 0.0015
m1 = 4.026 | 0.9849 ± 0.0011
m1 = 4.214 | 0.9911 ± 0.0009
m1 = 4.694 | 1.0054 ± 0.001
m1 = 5.41 | 1.032 ± 0.002
